According to patent publication US20080194407A1, “High nitrogen containing chelate compositions suitable for plant delivery” (priority 2007, published 2008):

Assays:
corn (maze) plants [1] = test: Greenhouse foliar study in corn: Fe concentration by plasma emission spectrophotometry; type: in vivo; conditions: 400 ppm Fe foliar spray twice, harvest three weeks after last spray
Method: (§1) A greenhouse foliar study was conducted in which 12 inch corn (maze) plants were sprayed with a solution that contained 400 ppm Fe as FeSO4, Fe EDTA, or Fe high nitrogen amino acid chelate with and without the addition of urea and ammonium nitrate. The high nitrogen amino acids were lysine, histidine, cysteine, tryptophan, aspartic acid, alanine, and glycine. The urea and ammonium nitrate were formulated as an admixture and not reacted to the Fe sources. […] These same treatments were repeated one week later. Three weeks following the last spray, all of the plants were harvested and the roots separated from the stalks. Each sample was dried for 24 hours at 75° C., then weighed for dry matter, and the Fe concentrations determined by plasma emission spectrophotometry.

corn (maze) plants [2] = test: Greenhouse foliar study in corn: plant growth as dry matter; type: in vivo; conditions: 400 ppm Fe foliar spray twice
Method: as §1, with “spectrophotometry. […] Greater Fe retention also results in greater plant growth as measured by dry matter.” for “spectrophotometry.”

Golden Delicious apples [3] = test: Golden Delicious apple foliar calcium study: Ca analysis of leaves and fruit; type: in vivo, apple trees; conditions: 4 foliar applications, 14 day interval; for Apple Ca: apple fruit flesh; for Leaf Ca: apple leaves from fruiting spur
Method: A study was conducted with Golden Delicious apples. Calcium is effective in reducing bitterpit in apples, and the present study was initially designed to determine which source of calcium, described below, had the greatest impact on reducing bitterpit. As a secondary aspect of this study, the leaves and fruit were analyzed to see if the source of calcium could affect calcium retention in the plant tissues.
(§2) A block of mature apple trees was divided into 4 sections.
(§3) The amino acids in the calcium chelate were glycine, valine, leucine, tryptophan, isoleucine, lysine, aspartic acid, alanine, and arginine. All treatments were made on the same day. The applications began with the first cover spray and continued from there every 14 days for 4 applications. The leaves were collected from a fruiting spur located at a 45 degree angle from the spray rig and into the tree canopy 3 feet. Samples were collected and sent for analysis. Apples were also collected on the same day from the same location as the leaves. They also were sent for analysis of the fruit flesh. The orchard was then harvested and placed in storage.

Golden Delicious apples [4] = test: Golden Delicious apple foliar calcium study: bitterpit and culls; type: in vivo, apple trees; conditions: apples harvested and stored; 4 foliar applications, 14 day interval
Method: A study was conducted with Golden Delicious apples. […] As a secondary aspect of this study, the leaves and fruit were analyzed to see if the source of calcium could affect calcium retention in the plant tissues.
as §2, §3
It is noted that absorption of calcium into the plant from a foliar spray is only part of what the plant needs. The calcium source must be able to be retained by the plant after absorption and then be translocated and enter into metabolic activities as needed.

oranges = test: Orange orchard foliar zinc study: fruit production and quality; type: in vivo, orange trees; conditions: equivalent zinc
Method: A study was conducted in oranges in which the application of zinc nitrate was compared to a zinc mixed ligand amino acid chelate. The mixed ligands included arginine, lysine, histidine, leucine, tryptophan, aspartic acid, alanine, and glycine. Specifically, a 12 year old orchard containing 193 trees per acre was evaluated. The trees were divided into 2 groups. One group was sprayed with a zinc nitrate treatment, and the other group was sprayed with a zinc mixed ligand amino acid chelate treatment. The treatments were applied by a sprayer that sprays 535 gallons of liquid per acre.
Each tree was sprayed twice during the study, a first time at 90% petal drop and a second time 14 days later. The zinc nitrate was applied at 49 ounces per acre and the amino acid chelate at 66 ounces per acre. The amount of zinc applied to each group was equivalent.
Ten trees from each group were selected at random and the oranges picked from those trees by hand.

[5] = 0 ppm N from urea and ammonium nitrate
[6] = 500 ppm N from urea and ammonium nitrate
[7] = 1000 ppm N urea and ammonium nitrate

O=S(=O)([O-])[O-].[Fe+2] [FeSO4]
Fe in Leaves (corn (maze) plants [1]; [5]): 48 ppm^a Fe ppm Fe
Fe in Leaves (corn (maze) plants [1]; [6]): 53 ppm^a Fe ppm Fe
Fe in Leaves (corn (maze) plants [1]; [7]): 63 ppm^a Fe ppm Fe
Dry Matter (corn (maze) plants [2]; [5]): 13.23 g/pot
Dry Matter (corn (maze) plants [2]; [6]): 15.73 g/pot
Dry Matter (corn (maze) plants [2]; [7]): 14.82 g/pot

[O]=[Ca] [Ca Oxide, calcium oxide]
Apple Ca (Golden Delicious apples [3]): 148 ppm
Leaf Ca (Golden Delicious apples [3]): 2.15%
percent of bitterpit in the culls (Golden Delicious apples [4]): 25%
percent of culls (Golden Delicious apples [4]): 34%

O=[N+]([O-])[O-].O=[N+]([O-])[O-].[Zn+2] [Zn Nitrate, zinc nitrate]
% Acid (oranges; oranges, sprayed twice): 1.05%
% Brix (oranges; oranges, sprayed twice): 12.2%
% Juice (oranges; oranges, sprayed twice): 57.2%
Weight of oranges/tree (oranges; sprayed twice (90% petal drop and 14 days later), ten trees per group): 95.11 lbs

O=C([O-])CN(CCN(CC(=O)[O-])CC(=O)[O-])CC(=O)[O-].[Fe+3] [Fe EDTA]
Fe in Leaves (corn (maze) plants [1]; [5]): 47 ppm^a Fe ppm Fe
Fe in Leaves (corn (maze) plants [1]; [6]): 56 ppm^a Fe ppm Fe
Fe in Leaves (corn (maze) plants [1]; [7]): 69 ppm^a Fe ppm Fe
Dry Matter (corn (maze) plants [2]; [5]): 14.12 g/pot
Dry Matter (corn (maze) plants [2]; [6]): 15.08 g/pot
Dry Matter (corn (maze) plants [2]; [7]): 11.24 g/pot

O=[N+]([O-])[O-].O=[N+]([O-])[O-].[Ca+2] [Ca Nitrate, calcium nitrate]
Apple Ca (Golden Delicious apples [3]): 190 ppm
Leaf Ca (Golden Delicious apples [3]): 2.37%
percent of bitterpit in the culls (Golden Delicious apples [4]): 20%
percent of culls (Golden Delicious apples [4]): 34%

[Ca+2].[Cl-].[Cl-] [Ca Chloride, calcium chloride]
Apple Ca (Golden Delicious apples [3]): 138 ppm
Leaf Ca (Golden Delicious apples [3]): 1.70%
percent of bitterpit in the culls (Golden Delicious apples [4]): 26%
percent of culls (Golden Delicious apples [4]): 36%
